This assay has as its target MAT2A (Homo sapiens, UniProt P31153). In words: MAT2A Biochemical Assay. The following applies: 1 uM start, 3-fold dilution, 10 doses; Biomol Green, O.D.620; read-out: MAT2A enzymatic IC50. On the procedure: Example A: MAT2A Biochemical Assay
Compounds described herein were tested as follows:
(1). Prepared 1× Assay buffer.
(2). Preparation of compound concentration gradient: the compounds test condition were 1 uM start, 3-fold dilution, 10 doses, singlet or duplicate. 100× concentration compounds were prepared in 384-well plate. Then used Echo 550 to transfer 250 nl to a 384-reaction plate for later use. Added 250 nl of 100% DMSO to the negative and positive control wells.
(3). Prepared 1.67× final concentration enzyme solution with 1× Assay buffer.
(4). Added 15 μl of 1.67× Enzyme solution to the compound wells and positive control wells; added 15 μl of 1× Assay buffer to the negative control wells.
(5). Centrifuged at 1000 rpm for 30 seconds and incubate for 15 minutes.
(6). Prepared 2.5× final concentration Substrate mix solution with 1× Assay buffer.
(7). Added 10 μl of 2.5× final concentration Substrate mix solution to start the reaction.
(8). Centrifuged at 1000 rpm for 30 seconds and incubate for 150 minutes.
(9). Added 50 μl Biomol Green to stop the reaction, centrifuge at 1000 rpm for 30 seconds and incubate for 15 minutes, read O.D.620, process data.
(1) Using GraphPad Prism 5.
(2) % Inh=(Max signal−Compound signal)/(Max signal−Min signal)*100.
(3) Max signal was obtained from the positive control wells.
(4) Min signal was obtained from the negative control wells.
Chain of MAT2A (P31153 whole entry, species assumed): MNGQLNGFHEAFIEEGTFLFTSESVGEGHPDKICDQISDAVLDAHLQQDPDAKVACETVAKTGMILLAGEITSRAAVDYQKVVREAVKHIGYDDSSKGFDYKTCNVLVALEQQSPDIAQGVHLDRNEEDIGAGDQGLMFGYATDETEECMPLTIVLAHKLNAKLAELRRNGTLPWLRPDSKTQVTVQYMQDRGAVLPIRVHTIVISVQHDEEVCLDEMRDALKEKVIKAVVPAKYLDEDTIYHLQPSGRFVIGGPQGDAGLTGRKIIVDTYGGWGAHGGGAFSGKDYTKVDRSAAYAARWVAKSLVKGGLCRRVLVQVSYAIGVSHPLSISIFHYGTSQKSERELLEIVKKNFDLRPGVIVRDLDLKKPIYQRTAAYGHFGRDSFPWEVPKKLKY
Usually IC50 stands for the concentration that inhibits the measured activity by half. For `CN(C)CC#CCNc1nc(=O)n(-c2cccnc2)c2cc(Cl)ccc12` [Example 3, 7-chloro-4-((4-(dimethylamino)but-2-yn-1-yl)amino)-1-(pyridin-3-yl)quinazolin-2(1H)-one], the IC50 was 50 to 100 nM.

Consider `C#CCOc1nc(=O)n(-c2cccnc2)c2cc(Cl)ccc12` [Example 9, 7-chloro-4-(prop-2-yn-1-yloxy)-1-(pyridin-3-yl)quinazolin-2(1H)-one], for which the IC50 is 100 to 500 nM.

Consider `C#CC1CCCN(c2nc(=O)n(-c3ccccc3Cl)c3cc(Cl)ccc23)C1` (stereo not drawn) [Example 11, 7-chloro-1-(2-chlorophenyl)-4-(3-ethynylpiperidin-1-yl)quinazolin-2(1H)-one], for which the IC50 was in the range of 100 to 500 nM.

With `C#CC1(O)CN(c2nc(=O)n(-c3ccccc3Cl)c3cc(Cl)ccc23)C1` [Example 12, 7-chloro-1-(2-chlorophenyl)-4-(3-ethynyl-3-hydroxyazetidin-1-yl)quinazolin-2(1H)-one], the half-maximal inhibitory concentration (IC50) was 100 to 500 nM.

Consider `C#CCNc1nc(=O)n(-c2cnccn2)c2cc(C(F)(F)F)cc(F)c12` [Example 32, 5-fluoro-4-(prop-2-yn-1-ylamino)-1-(pyrazin-2-yl)-7-(trifluoromethyl)quinazolin-2(1H)-one], for which the IC50 lay in the range of 50 to 100 nM.

In the case of `C#CCNc1nc(=O)n(-c2cccnc2)c2cc(C(F)(F)F)cc(OC(F)F)c12` [Example 39, 5-(difluoromethoxy)-4-(prop-2-yn-1-ylamino)-1-(pyridin-3-yl)-7-(trifluoromethyl)quinazolin-2(1H)-one], the IC50 was in the range of 50 to 100 nM.

Take `C#CC1(Nc2nc(=O)n(-c3cccnc3C)c3cc(C(F)(F)F)cc(OC(F)F)c23)CC1` [Example 41, 5-(difluoromethoxy)-4-((1-ethynylcyclopropyl)amino)-1-(2-methylpyridin-3-yl)-7-(trifluoromethyl)quinazolin-2(1H)-one]: the 50% inhibitory concentration (IC50) was in the range of 50 to 100 nM.

`C#CC1(Nc2nc(=O)n(-c3cccnc3C)c3nc(C(F)(F)F)cc(OC)c23)CC1` [Example 43, 4-((1-ethynylcyclopropyl)amino)-5-methoxy-1-(2-methylpyridin-3-yl)-7-(trifluoromethyl)pyrido[2,3-d]pyrimidin-2(1H)-one]: the half-maximal inhibitory concentration (IC50) was 50 to 100 nM.

As for `C#CCNc1nc(=O)n(-c2cc(C)cnc2C)c2cc(C(F)(F)F)ccc12` [Example 44, 1-(2,5-dimethylpyridin-3-yl)-4-(prop-2-yn-1-ylamino)-7-(trifluoromethyl)quinazolin-2(1H)-one], the IC50 is 100 to 500 nM.

On to `C#CCNc1nc(=O)n(-c2cccnc2)c2cc(C(F)(F)F)cnc12` [Example 55, 4-(prop-2-yn-1-ylamino)-1-(pyridin-3-yl)-7-(trifluoromethyl)pyrido[3,2-d]pyrimidin-2(1H)-one], for which the half-inhibitory concentration (IC50) was 500 to 1000 nM.

With `C#CCNc1nc(=O)n(-c2cccnc2)c2cc(C(F)(F)F)ncc12` [Example 58, 4-(prop-2-yn-1-ylamino)-1-(pyridin-3-yl)-7-(trifluoromethyl)pyrido[4,3-d]pyrimidin-2(1H)-one], the IC50 was in the range of 100 to 500 nM.

For `C#CC(C)Nc1nc(=O)n(-c2cccnc2)c2cc(C(F)(F)F)ncc12` (stereo not drawn) [Example 59, 4-(but-3-yn-2-ylamino)-1-(pyridin-3-yl)-7-(trifluoromethyl)pyrido[4,3-d]pyrimidin-2(1H)-one], the IC50 is 100 to 500 nM.

As to `C#CC1(Nc2nc(=O)n(-c3cccnc3)c3cc(C(F)(F)F)ncc23)CC1` [Example 60, 4-((1-ethynylcyclopropyl)amino)-1-(pyridin-3-yl)-7-(trifluoromethyl)pyrido[4,3-d]pyrimidin-2(1H)-one], the half-inhibitory concentration (IC50) lay within 100 to 500 nM.

With `C#CC1(Nc2nc(=O)n(-c3cccnc3)c3nc(C(F)(F)F)ncc23)CC1` [Example 62, 4-((1-ethynylcyclopropyl)amino)-1-(pyridin-3-yl)-7-(trifluoromethyl)pyrimido[4,5-d]pyrimidin-2(1H)-one], the IC50 lay in the range of 50 to 100 nM.

For the molecule `C#CCNc1nc(=O)n(-c2cncnc2)c2cc(Cl)ccc12` [Example 71, 7-chloro-4-(prop-2-yn-1-ylamino)-1-(pyrimidin-5-yl)quinazolin-2(1H)-one], the concentration for half-maximal inhibition (IC50) was 100 to 500 nM.

For `C#CCNc1nc(=O)n(-c2cnn(C)c2)c2cc(C(F)(F)F)ccc12` [Example 72, 1-(1-methyl-1H-pyrazol-4-yl)-4-(prop-2-yn-1-ylamino)-7-(trifluoromethyl)quinazolin-2(1H)-one], the IC50 was in the range of 100 to 500 nM.

With `C=CC1(Nc2nc(=O)n(-c3cccnc3C)c3cc(C(F)(F)F)cc(OC)c23)CC1` [Example 78], the IC50 was 50 to 100 nM.

Regarding `NC/C=C/CNc1nc(=O)n(-c2cccnc2)c2cc(C(F)(F)F)ccc12` [Example 79, (E)-4-((4-aminobut-2-en-1-yl)amino)-1-(pyridin-3-yl)-7-(trifluoromethyl)quinazolin-2(1H)-one], the IC50 lay in the range of 100 to 500 nM.

For the origin of these results see patent publication US11999713B2, “Methionine adenosyltransferase 2a (MAT2A) inhibitors and uses thereof” (Insilico Medicine IP Limited, priority 2021, dated 2024).
